Test results as given in patent publication US11446270B2, “Leonurine crystal and use thereof in preparation of insulin sensitizer, hypoglycemic drug and lipid-lowering drug” (ZHUHAI HENGQIN NEW DISTRICT ZHONGZHU ZHENGTAI MEDICAL …, priority 2017, dated 2022).
Entries after “also recorded” stand apart in the source; their conditions may differ.

How the values were obtained:
New Zealand white rabbit = assay: Serum lipids in hyperlipidemia New Zealand rabbits on high fat diet; format: in vivo; conditions: 12 weeks
Description: Forty-eight male New Zealand rabbits weighed 1.8 to 2.2 kg were housed under 12 h dark-12 h light cycles and allowed food and water ad libitum to adapt to the housing environment for one week, and then randomly divided into 6 groups: • 1) Control group (Normal diet, n=8); Administered intragastrically with ultrapure water; • 2) Model group (High fat diet, n=8); Administered intragastrically with ultrapure water; • 3) Leonurine crystal form A in low dose group (High fat diet, n=8); Administered intragastrically at a dose of 4 mg/kg/day; • 4) Leonurine crystal form A in middle dose group (High fat diet, n=8); Administered intragastrically at a dose of 8 mg/kg/day; • 5) Leonurine crystal form A in high dose group (High fat diet, n=8); […] Administered intragastrically at a dose of 2.5 mg/kg/day; Rabbits were weighed before administered drugs every week, where the dosage of the drug for rabbits is calculate according to the weight; and housed in an air-conditioned room under (24±1° C. room temperature and 55±5% air humidity) and allowed enough food and water ad libitum. After 12 weeks of administration, the rabbits were fasted for 12 h, and blood (2 ml) was drawn from the marginal ear vein for hematology analysis. Hematology analysis: blood samples were let for standing for 2 h and centrifuged (3000 rpm, 10 min, 4° C.) to obtain serum. The serum samples were tested according to the protocols recommended by Nanjing Jiancheng Bioengineering Institute. The total cholesterol (TC), triacylglycerol (TG), low-density cholesterol (LDL-C) and […] (HDL-C) levels in the serum samples were assessed using automatic microplate reader and automatic biochemical analyzer. Statistical analysis: GraphPad Prism 5 software was used to analyze and draw figure. Results were expressed as the mean±standard (mean±SD), and statistical analysis was performed by one-way analysis of variance (ANOVA) or student's t test. A difference with P<0.05 was considered statistically significant. Statistical significance was set at *P<0.05, **P<0.01, ***P<0.001 versus the model group.

rhesus monkey = assay: Model of rhesus monkey with hyperlipidemia, long-term administration; format: in vivo
[1] = Accelerated stability test of leonurine crystal forms; format: physicochemical; conditions: for Crystal stability: 70% RH, 10 days
From the text: In the invention, the dominant medicinal crystal form was also screened by the accelerated stability experimental method, and observed the transformation among the various crystal forms.

Sprague-Dawley rats = assay: Chronic administration for 3 weeks, glucose tolerance test (OGTT) in rats; format: in vivo; conditions: rat, vs solvent control, listed as leonurine crystal form A
Description: […] male Sprague-Dawley rats weighed 180 to 220 g were randomly divided into 4 groups, and with vehicle or three different dose of leonurine crystal form A treatment respectively: control group are treated with equal volume of DMSO, and treatment groups are treated with 30 mg/kg per day, 60 mg/kg per day, or 120 mg/kg per day of leonurine crystal form A. Leonurine crystal form A was dissolved in DMSO at concentrates of 30 mg/ml, 60 mg/ml and 120 mg/ml, and the volume of vehicle administered intragastrically in each rat was 1 ml per kg of body weight. The rats were treated with leonurine crystal form A or DMSO once a day for 3 weeks. Oral glucose tolerance test (OGTT) was detected at third week, and the rats were fasted 12 h before OGTT experiment. OGTT experiment was performed 1 h after administered of drugs. Blood glucose and body weight were tested before OGTT. OGTT: Rats were given 25% glucose solution (2 g/kg of body weight, 8 ml/kg) by […], and blood glucose concentration was determined from the tail vein at 15, 30, 60 and 120 min. The drug was discontinued for one week after OGTT, and the body weight and fasting blood-glucose were detected at forth week.
The data were analyzed by SPSS statistical software (version 11.5), and results were expressed as the mean±standard error of the mean (mean±SEM). Multiple group comparisons were tested by one-way analysis of variance (ANOVA). P<0.05 was considered as statistically significant. […] At 15 min time point, the glucose tolerance curve was shifted down. […] Moreover, at 60 min time point, the glucose tolerance curve also was moved down at the dose of 30 mg/kg/d and 120 mg/kg/d.

Sprague-Dawley male rats = assay: Single dosage acute administration, insulin sensitivity test in rats; format: in vivo; conditions: rat, vs DMSO control
Description: Thirty-two Sprague-Dawley male rats (body weight 180-220 g) were randomly divided into 4 groups, gave control solvent and three different doses of leonurine crystal form A respectively. The control solvent group was given an equal volume of DMSO, and the treatment groups were administered with three doses of 30 mg/kg, 60 mg/kg and 120 mg/kg respectively, 8 rats per group, where the leonurine crystal form A was dissolved in DMSO at concentrations of 30 mg/ml, 60 mg/ml and 120 mg/ml respectively. The volume of solvent obtained per rat is one millilitre per kilogram of body weight. The route of administration is gavage, weighing before gavage, and taking blood from tail vein to measure blood glucose. Each rat was tested for insulin sensitivity 1 hour after administration of drugs or control solvent, the dose of insulin selected was 0.5 units per kilogram of body weight, intraperitoneal injection of insulin, blood glucose was measured before injection and at 15, 30, 60, 90, and 120 minutes after injection. The data were analyzed by SPSS 11.5 statistical software, and the results were expressed as mean ±standard error of the mean (mean±SEM), pairwise comparison between groups was examined by one-way analysis of variance (ANOVA), P<0.05 was considered significant difference between the groups.

[2] = dose not stated, listed as leonurine crystal form A
[3] = high dose group 16 mg/kg/day intragastric, vs model group
[4] = 40° C., relative humidity 60%-80%, 10-day stability test, listed as leonurine crystal form A

For COc1cc(C(=O)OCCCCNC(=N)N)cc(OC)c1O [crystal form A, 4-guanidino-1-butyl 4-hydroxy-3,5-dimethoxybenzoate], the “serum total cholesterol (TC)” value (New Zealand white rabbit; [2]) was “reduce; also recorded: decrease”, the “serum triglycerides / total triacylglycerol (TG)” value (New Zealand white rabbit; [2]) was “reduce; also recorded: decrease” and the “serum total cholesterol (TC)” value (New Zealand white rabbit; [3]) was “reduced”. The “serum triacylglycerol (TG)” value (New Zealand white rabbit; [3]) was “reduced”, the “serum triacylglycerol (TG)” value (New Zealand white rabbit; middle dose group 8 mg/kg/day intragastric, vs model group) was “reduced” and the “low-density lipoprotein (LDL-C)” value (rhesus monkey) was “decreasing”. For the same molecule, the “total cholesterol (TC)” value (rhesus monkey) was “decreasing”, the Crystal stability ([1]; 40° C.) was “remain unchanged” and the Crystal stability ([1]; 40° C., listed as A) was “stable”. The crystal transformation behavior [1, 4] was “no crystal transformation behavior”, the “hygroscopicity (in words)” value [1, 4] was “not obvious” and the “stability in accelerating experiments” value ([1]; 40° C./75% RH) was “most stable”. For the same molecule, the “glucose tolerance curve (blood glucose)” value (Sprague-Dawley rats; 30 mg/kg/d for 3 weeks, 15 minute time point, 30 mg/kg/day) was “reduce the degree of elevation of blood glucose; also recorded: decrease the level of blood glucose”, the “glucose tolerance curve (blood glucose)” value (Sprague-Dawley rats; 30 mg/kg/d for 3 weeks, 60 minute time point, 30 mg/kg/day) was “reduce the degree of elevation of blood glucose; also recorded: decrease the level of blood glucose” and the “glucose tolerance curve (blood glucose)” value (Sprague-Dawley rats; 120 mg/kg/d for 3 weeks, 60 minute time point, 120 mg/kg/day) was “reduce the degree of elevation of blood glucose; also recorded: decrease the level of blood glucose”. For the same molecule, the “insulin sensitivity curve (blood glucose after insulin injection)” value (shortened to “insulin sensitivity curve”) (Sprague-Dawley male rats; single gavage 30 mg/kg) was “basically coincident with the control group”, the “insulin sensitivity curve” value (Sprague-Dawley male rats; single gavage 60 mg/kg, 60 minute time point, listed as leonurine crystal form A, 60 mg/kg) was “reached statistical significance; also recorded: decreased significantly” and the “insulin sensitivity curve” value (Sprague-Dawley male rats; single gavage 120 mg/kg, 60 minute time point) was “no statistically significant difference was observed”.
